This passage reports MIC and Activity results from ChEMBL document CHEMBL4825750, “Evaluation of Elaiophylin extracted from Streptomyces hygroscopicus as a potential inhibitor of the NorA efflux protein in Staphylococcus aureus: An in vitro and in silico approach” (2021).

In assay [1] the test system is Staphylococcus aureus. The experiment in a line: Antibacterial activity against wild-type Staphylococcus aureus SA-1199 incubated for 24 hrs by broth microdilution method. The assay is classed as functional.
In assay [2] the test system is Staphylococcus aureus. The experiment in a line: Antibacterial activity against Staphylococcus aureus SA-1199B overexpressing NorA incubated for 24 hrs by broth microdilution method. In kind it is functional.
Assay [3] concerns the target T1, Quinolone resistance protein NorA (Staphylococcus aureus) (UniProt P0A0J7).
T1 sequence (whole entry): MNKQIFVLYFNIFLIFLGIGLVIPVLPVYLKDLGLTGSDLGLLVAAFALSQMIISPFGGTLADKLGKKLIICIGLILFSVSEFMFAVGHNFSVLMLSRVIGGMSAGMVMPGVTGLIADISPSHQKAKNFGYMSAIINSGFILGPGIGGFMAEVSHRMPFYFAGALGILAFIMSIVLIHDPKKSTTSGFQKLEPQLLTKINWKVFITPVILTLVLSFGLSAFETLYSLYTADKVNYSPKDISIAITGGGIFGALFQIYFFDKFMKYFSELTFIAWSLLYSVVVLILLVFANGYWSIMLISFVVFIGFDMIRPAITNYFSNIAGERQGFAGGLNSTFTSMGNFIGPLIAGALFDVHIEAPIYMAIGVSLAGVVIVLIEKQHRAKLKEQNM
The experiment in a line: Inhibition of NorA in Staphylococcus aureus SA-1199 assessed as potentiation of ethidium bromide-mediated antibacterial activity by measuring ethidium bromide MIC incubated for 24 hrs by resazurin assay.

Assay [4] deals with T1, Quinolone resistance protein NorA (Staphylococcus aureus). The experiment in a line: Inhibition of NorA in Staphylococcus aureus SA-1199B assessed as potentiation of ethidium bromide-mediated antibacterial activity by measuring ethidium bromide MIC incubated for 24 hrs by resazurin assay.
Assay [5] shares this target. The experiment in a line: Inhibition of NorA in Staphylococcus aureus SA-1199B assessed as potentiation of norfloxacin-mediated antibacterial activity by measuring norfloxacin MIC incubated for 24 hrs by resazurin assay.
The target is the same in assay [6]. Description: Inhibition of NorA in Staphylococcus aureus SA-1199 assessed as potentiation of norfloxacin-mediated antibacterial activity by measuring norfloxacin MIC incubated for 24 hrs by resazurin assay.
Assay [7] has as its system Staphylococcus aureus. The experiment in a line: Decrease in NorA gene expression in Staphylococcus aureus SA-1199B in combination with norfloxacin by RT-qPCR. The assay is classed as functional.
For assay [8], the system named is Staphylococcus aureus. The experiment in a line: Decrease in NorA gene expression in Staphylococcus aureus SA-1199B by RT-qPCR. In kind it is functional.

Values after ≈ are worked out from the molar mass of the structure shown. Active and inactive are the calls of the source. The rule behind the calls is not given here.

With `CCn1cc(C(=O)O)c(=O)c2cc(F)c(N3CCNCC3)cc21` [NORFLOXACIN], the MIC against Staphylococcus aureus [1] is 64 µg/mL (≈ 200 µM); in the assay with Staphylococcus aureus [2] it was 256 µg/mL (≈ 802 µM).

Turning to `N#CC(C#N)=NNc1cccc(Cl)c1`, the MIC in assay [3] was 4 µg/mL; in assay [4] it was 8 µg/mL; in assay [5], 8 µg/mL; in assay [6] it was 8 µg/mL.

For `CC[C@@H]1[C@@H](C)O[C@@](O)([C@@H](C)[C@H](O)[C@H](C)[C@H]2OC(=O)/C=C/C=C/[C@H](C)[C@@H]([C@@H](C)[C@@H](O)[C@H](C)[C@@]3(O)C[C@@H](O[C@H]4C[C@H](O)[C@H](O)[C@H](C)O4)[C@H](CC)[C@@H](C)O3)OC(=O)/C=C/C=C/[C@@H]2C)C[C@H]1O[C@H]1C[C@H](O)[C@H](O)[C@H](C)O1`, the MIC in assay [3] is 1 µg/mL; in assay [4], 1 µg/mL; against Staphylococcus aureus [1] it was 0.5 µg/mL (≈ 0.488 µM); in the assay on Staphylococcus aureus [2], 0.5 µg/mL (≈ 0.488 µM); in assay [5] it was 1 µg/mL; in assay [6], 1 µg/mL. Moreover, the result with Staphylococcus aureus [7] and in the assay on Staphylococcus aureus [8] was Active.
